Data on 21 compounds can be found in patent publication US6492374B2, “Benzofuran derivatives, their preparation and use” (H. Lundbeck A/S, priority 1998, dated 2002).

In data set [1] the target is T1, cloned human 5-HT1A receptors (Homo sapiens, UniProt P08908).
T1 construct: expressed in transfected cells; host or cells: HeLa cells (HA7), stably transfected; cell homogenate
T1 sequence (P08908 1-422): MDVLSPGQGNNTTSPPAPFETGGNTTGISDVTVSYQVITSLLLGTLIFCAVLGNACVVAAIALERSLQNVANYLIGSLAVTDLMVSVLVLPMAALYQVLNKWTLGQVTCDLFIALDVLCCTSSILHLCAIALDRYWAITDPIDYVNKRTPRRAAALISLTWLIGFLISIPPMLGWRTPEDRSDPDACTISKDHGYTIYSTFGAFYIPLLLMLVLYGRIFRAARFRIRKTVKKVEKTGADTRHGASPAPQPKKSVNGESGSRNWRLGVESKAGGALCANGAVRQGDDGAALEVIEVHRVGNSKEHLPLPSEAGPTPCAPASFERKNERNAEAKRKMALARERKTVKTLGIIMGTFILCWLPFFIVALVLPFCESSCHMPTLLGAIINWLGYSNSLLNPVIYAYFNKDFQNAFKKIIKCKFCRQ
The data set can be described thus: Inhibition of 3H-5-CT binding to human 5-HT1A receptors. The settings on record: cloned human 5-HT1A receptors expressed in HeLa cells (HA7). As to the method: Inhibition of ^3H-5CT Binding to Human 5-HT1A Receptors
Human 5-HT1A receptors (40 μg of cell homogenate) were incubated for 15 minutes at 37° C. in 50 mM Tris buffer at pH 7.7 in the presence of ^3H-5-CT. Non-specific binding was determined by including 10 μM of metergoline. The reaction was terminated by rapid filtration through Unifilter GF/B filters on a Tomtec Cell Harvester. Filters were counted in a Packard Top Counter.

Data set [2] relates to serotonin reuptake (3H-5-HT uptake into whole rat brain synaptosomes). The experiment in a line: Inhibition of 3H-5-HT uptake into rat brain synaptosomes. Type of data set: biochemical. As to the method:
Inhibition of ^3H-5HT Uptake Into Rat Brain Synaptosomes
Using this method, the ability of drugs to inhibit the accumulation of ^3H-5-HT into whole rat brain synaptosomes is determined in vitro.

`CN(CCCc1cccc2c1OCCO2)CCCC1(c2ccc(F)cc2)OCc2cc(C#N)ccc21.O=C(O)C(=O)O` (single isomer, unassigned; (+)) [Compound 1b, (+)-1-[3-[[3-(1,4-Benzodioxan-5-yl)propyl]methylamino]propyl]-1-(4-fluorophenyl)-1,3-dihydroisobenzofuran-5-carbonitrile oxalate]: the melting point was in the range of 114 to 116 °C. The IC50 in data set [1] was determined as 12 nM.
`CN(CCCC1(c2ccc(F)cc2)OCc2cc(C#N)ccc21)Cc1cccc2c1OCCO2.O=C(O)C(=O)O` (stereo not shown) gave a melting point of 160 to 162 °C.
`CN(CCCC1(c2ccc(F)cc2)OCc2cc(C#N)ccc21)CCc1cccc2c1OCCO2.O=C(O)C(=O)O` (stereo not shown) [Compound 1c, 1-[3-[[2-(1,4-Benzodioxan-5-yl)ethyl]methylamino]propyl]-1-(4-fluorophenyl)-1,3-dihydroisobenzofuran-5carbonitrile oxalate] gave a melting point of 118 to 120 °C. This compound yielded an IC50 in data set [1] of 53 nM.
For `CN(CCCc1cccc2c1OCCO2)CCCC1(c2ccc(F)cc2)OCc2cc(F)ccc21.O=C(O)C(=O)O` (stereo not shown), the melting point was in the range of 131 to 133 °C.
As for `C=CCN(CCCOc1ccccc1OC)CCCC1(c2ccc(F)cc2)OCc2cc(C#N)ccc21` (stereo not shown) [Compound 4n, 1-(4-Fluorophenyl)-1-[3-[[3-(2-methoxyphenoxy)propyl](prop-2-en-1-yl)amino]propyl]-1,3-dihydroisobenzofuran-5-carbonitrile], the “Inhibition of serotonin reuptake % inhibition at 100 nM” value in data set [2] is 39% inh. at 100 nM. In data set [1], this compound yielded an IC50 of 14 nM.
`CCN(CCCc1c[nH]c2ccccc12)CCCC1(c2ccc(F)cc2)OCc2cc(C#N)ccc21` (stereo not shown) [Compound 12f]: the IC50 worked out at 13 nM in data set [2] and 4.7 nM in data set [1].
For `C=CCN(CCCC1(c2ccc(F)cc2)OCc2cc(C#N)ccc21)CCc1c[nH]c2ccc(F)cc12` (stereo not shown) [Compound 13b, 1-[3-[[2-(5-Fluoro-1H-indol-3-yl)ethyl](prop-2-en-1-yl)amino]propyl]-1-(4-fluorophenyl)-1,3-dihydroisobenzofuran-5-carbonitrile], the figures for the IC50 in data set [2] and in data set [1] were 44 nM and 7.4 nM, respectively.
With `CN(CCCc1c[nH]c2ccc(Cl)cc12)CCCC1(c2ccc(F)cc2)OCc2cc(C#N)ccc21` (stereo not shown) [Compound 12r, 1-[3-[[3-(5-Chloro-1H-indol-3-yl)propyl]methylamino]propyl]-1-(4-fluorophenyl)-1,3-dihydroisobenzofuran-5-carbonitrile], the “Inhibition of serotonin reuptake % inhibition at 100 nM” value in data set [2] stood at 47% inh. at 100 nM. In addition, the IC50 in data set [1] was found to be 16 nM.
Turning to `C=CCN(CCCc1c[nH]c2ccc(F)cc12)CCCC1(c2ccc(F)cc2)OCc2cc(C#N)ccc21` (stereo not shown) [Compound 13d, 1-[3-[[3-(5-Fluoro-1H-indol-3-yl)propyl](prop-2-en-1-yl)amino]propyl]-1-(4-fluorophenyl)-1,3-dihydroisobenzofuran-5-carbonitrile], the figures for the IC50 in data set [2] and in data set [1] were 21 nM and 15 nM, respectively.
On to `CN(CCCC1(c2ccc(F)cc2)OCc2cc(C#N)ccc21)CCOc1ccccc1` (stereo not shown) [Compound 4g, 1-(4-Fluorophenyl)-1-[3-[[2-phenoxyethyl]methylamino]propyl]-1,3-dihydroisobenzofuran-5carbonitrile], for which the “Inhibition of serotonin reuptake % inhibition at 100 nM” value in data set [2] is reported as 28% inh. at 100 nM. The IC50 in data set [1] came to 18 nM.
For `CCN(CCCc1c[nH]c2c(F)cccc12)CCCC1(c2ccc(F)cc2)OCc2cc(C#N)ccc21` (stereo not shown) [Compound 12p, 1-[3-[Ethyl[3-(7-fluoro-1H-indol-3-yl)propyl]amino]propyl]-1-(4-fluorophenyl)-1,3-dihydroisobenzofuran-5carbonitrile], the IC50 in data set [2] is 11 nM; in data set [1], 19 nM.
As for `C=CCN(CCCC1(c2ccc(F)cc2)OCc2cc(C#N)ccc21)CCc1ccccc1OC` (stereo not shown) [Compound 4d, 1-(4-Fluorophenyl)-1-[3-[[2-(2-methoxyphenyl)ethyl](prop-2-en-1-yl)amino]propyl]-1,3-dihydroisobenzofuran-5-carbonitrile], the “Inhibition of serotonin reuptake % inhibition at 100 nM” value in data set [2] is given as 7% inh. at 100 nM. This compound yielded an IC50 in data set [1] of 4.5 nM.
Taken in the same sequence, the figures for `CCN(CCCc1c[nH]c2ccc(Cl)cc12)CCCC1(c2ccc(F)cc2)OCc2cc(C#N)ccc21` (stereo not shown) [Compound 12x, 1-[3-[[3-(5-Chloro-1H-indol-3-yl)propyl]ethylamino]propyl]-1-(4-fluorophenyl)-1,3-dihydroisobenzofuran-5-carbonitrile] were 50% inh. at 100 nM and 14 nM.
Taken in the same sequence, the figures for `C=CCN(CCCC1(c2ccc(F)cc2)OCc2cc(C#N)ccc21)CCc1cccc(OC)c1` (stereo not shown) [Compound 4c, 1-(4-Fluorophenyl)-1-[3-[[2-(3-methoxyphenyl)ethyl](prop-2-en-1-yl)amino]propyl]-1,3-dihydroisobenzofuran-5-carbonitrile] were 4% inh. at 100 nM and 11 nM.
Consider `C=CCN(CCCc1c[nH]c2c(F)cccc12)CCCC1(c2ccc(F)cc2)OCc2cc(C#N)ccc21` (stereo not shown) [Compound 13e, 1-[3-[[3-(7-Fluoro-1H-indol-3-yl)propyl](prop-2-en-1-yl)amino]propyl]-1-(4-fluorophenyl)-1,3-dihydroisobenzofuran-5-carbonitrile], for which the values for the IC50 in data set [2] and in data set [1] were 27 nM and 22 nM, respectively.
Regarding `CN(CCCc1c[nH]c2ccc(Br)cc12)CCCC1(c2ccc(F)cc2)OCc2cc(C#N)ccc21` (stereo not shown) [Compound 12aa, 1-[3-[[3-(5-Bromo-1H-indol-3-yl)propyl]methylamino]propyl]-1-(4-fluorophenyl)-1,3-dihydroisobenzofuran-5-carbonitrile], the “Inhibition of serotonin reuptake % inhibition at 100 nM” value in data set [2] worked out at 37% inh. at 100 nM. Moreover, in data set [1], the IC50 stood at 16 nM.
The like results for `C=CCN(CCCC1(c2ccc(F)cc2)OCc2cc(C#N)ccc21)CCc1c[nH]c2c(C)ccc(Cl)c12` (stereo not shown) [Compound 13j, 1-[3-[[2-(4-Chloro-7-methyl-1H-indol-3-yl)ethyl](prop-2-en-1-yl)amino]propyl]-1-(4-fluorophenyl)-1,3-dihydroisobenzofuran-5-carbonitrile] were, in that order, 61% inh. at 100 nM and 16 nM.
Taken in the same sequence, the figures for `CN(CCCC1(c2ccc(F)cc2)OCc2cc(C#N)ccc21)CCOCc1ccccc1` (stereo not shown) [Compound 4q, 1-[3-[(2-Benzyloxyethyl)methylamino]propyl]-1-(4-fluorophenyl)-1,3-dihydroisobenzofuran-5-carbonitrile] were 60% inh. at 100 nM and 16 nM.
Taken in the same sequence, the figures for `CCCN(CCCC1(c2ccc(F)cc2)OCc2cc(C#N)ccc21)CCc1c[nH]c2c(F)cc(F)cc12` (stereo not shown) [Compound 13g, 1-[3-[[2-(5,7-Difluoro-1H-indol-3-yl)ethyl]propylamino]propyl]-1-(4-fluorophenyl)-1,3-dihydroisobenzofuran-5-carbonitrile] were 49% inh. at 100 nM and 18 nM.
For the compound `CCN(CCCCc1c[nH]c2ccc(F)cc12)CCCC1(c2ccc(F)cc2)OCc2cc(C#N)ccc21` (stereo not shown) [Compound 12v, 1-[3-[[4-(5-Fluoro-1H-indol-3-yl)butyl]ethylamino]propyl]-1-(4-fluorophenyl)-1,3-dihydroisobenzofuran-5-carbonitrile], the IC50 in data set [2] was found to be 12 nM; in data set [1] it was 39 nM.
With `C=CCN(CCCC1(c2ccc(F)cc2)OCc2cc(C#N)ccc21)CCOCc1ccccc1` (stereo not shown) [Compound 4r, 1-[3-[(2-Benzyloxyethyl)(prop-2-en-1-yl)amino]propyl]-1-(4-fluorophenyl)-1,3-dihydroisobenzofuran-5-carbonitrile], in data set [2], the “Inhibition of serotonin reuptake % inhibition at 100 nM” value is given as 19% inh. at 100 nM. This compound registered an IC50 in data set [1] of 11 nM.
